Source: ChEMBL document CHEMBL1148621, “Evaluation of carbon-11-labeled 2beta-carbomethoxy-3beta-[4'-((Z)-2-iodoethenyl)phenyl]nortropane as a potential radioligand for imaging the serotonin transporter by PET” (J Med Chem, 2006)

Columns and labels:
[1] = biological target: Sodium-dependent noradrenaline transporter (Homo sapiens, UniProt P23975); test: Displacement of [3H]nisoxetine from NET
[2] = biological target: Sodium-dependent dopamine transporter (Homo sapiens, UniProt Q01959); test: Displacement of [123I]RTI-55 from DAT
Chain of Sodium-dependent dopamine transporter (Q01959 whole entry): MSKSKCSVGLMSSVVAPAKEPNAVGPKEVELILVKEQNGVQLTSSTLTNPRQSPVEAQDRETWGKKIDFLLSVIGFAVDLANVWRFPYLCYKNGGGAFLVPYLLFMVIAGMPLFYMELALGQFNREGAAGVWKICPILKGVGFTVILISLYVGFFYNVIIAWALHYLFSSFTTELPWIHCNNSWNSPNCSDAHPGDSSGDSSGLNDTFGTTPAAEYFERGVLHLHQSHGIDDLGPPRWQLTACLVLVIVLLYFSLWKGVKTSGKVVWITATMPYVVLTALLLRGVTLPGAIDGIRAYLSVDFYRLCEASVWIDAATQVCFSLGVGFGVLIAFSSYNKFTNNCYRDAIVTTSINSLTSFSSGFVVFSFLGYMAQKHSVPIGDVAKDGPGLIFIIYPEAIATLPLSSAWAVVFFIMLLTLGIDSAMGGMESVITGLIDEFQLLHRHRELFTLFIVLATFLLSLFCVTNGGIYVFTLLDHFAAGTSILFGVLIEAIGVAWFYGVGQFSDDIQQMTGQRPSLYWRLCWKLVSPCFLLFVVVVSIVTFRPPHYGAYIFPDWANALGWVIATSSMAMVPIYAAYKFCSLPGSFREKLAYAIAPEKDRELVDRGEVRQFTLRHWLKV

Chain of Sodium-dependent noradrenaline transporter (P23975 whole entry): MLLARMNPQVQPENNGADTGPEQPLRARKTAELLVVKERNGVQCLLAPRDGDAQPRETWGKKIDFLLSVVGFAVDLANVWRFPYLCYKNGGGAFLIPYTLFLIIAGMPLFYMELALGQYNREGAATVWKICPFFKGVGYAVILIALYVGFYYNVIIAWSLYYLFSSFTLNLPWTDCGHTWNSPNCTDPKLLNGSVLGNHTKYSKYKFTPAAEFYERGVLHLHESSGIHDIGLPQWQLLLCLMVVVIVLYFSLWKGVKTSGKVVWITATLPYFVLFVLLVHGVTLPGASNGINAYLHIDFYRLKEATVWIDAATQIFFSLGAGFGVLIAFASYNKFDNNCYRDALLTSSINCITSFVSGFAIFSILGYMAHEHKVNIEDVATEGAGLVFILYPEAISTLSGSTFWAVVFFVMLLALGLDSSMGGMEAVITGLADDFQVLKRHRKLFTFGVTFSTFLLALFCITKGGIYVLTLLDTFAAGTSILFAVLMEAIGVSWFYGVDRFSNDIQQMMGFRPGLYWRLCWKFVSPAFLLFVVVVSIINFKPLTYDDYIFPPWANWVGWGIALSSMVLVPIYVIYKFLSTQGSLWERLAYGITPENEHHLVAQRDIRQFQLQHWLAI

COC(=O)C1C2CCC(CC1c1ccc(/C=C\I)cc1)N2 (configuration not stated)
Ki [1]: 15 nM
Ki [2]: 6 nM
